This note sets out measurements from ChEMBL document CHEMBL2440112, “Structure-activity relationships of the aromatic site in novel anticonvulsant pyrrolo[1,2-a]pyrazine derivatives” (Bioorg Med Chem Lett, 2013).

Activity calls are given as the source filed them. No cut-off for these calls is given here.

As a reminder, the ED50 is the midpoint of the dose-response relation. A word on the TD50: it is the 50% point of the dose-response relation for the toxic effect studied.

Series [1] deals with Mus musculus. Briefly: Neurotoxicity in albino mouse assessed as minimal motor impairment at 100 mg/kg, ip after 0.5 hrs by rotorod test. In kind it is toxicity, organism-based. Details: dose 100 mg/kg, route intraperitoneal. Particulars: in vivo.
The subject of series [2] is Mus musculus. Put plainly: Neurotoxicity in albino mouse assessed as minimal motor impairment at 100 mg/kg, ip after 4 hrs by rotorod test. In kind it is toxicity, organism-based. Details: dose 100 mg/kg, route intraperitoneal. Particulars: in vivo.
Another series concerns Rattus norvegicus. Briefly: Anticonvulsant activity in po dosed albino Sprague-Dawley rat assessed as protection against maximal electroshock-induced seizures after […] to 4 hrs. In kind it is functional, organism-based.
The test system of series [3] is Mus musculus. Briefly: Anticonvulsant activity in albino mouse assessed as protection against subcutaneous metrazole-induced seizures at 100 mg/kg, ip after 4 hrs. Format: functional, organism-based. Details: dose 100 mg/kg.
Series [4] relates to Mus musculus. Put plainly: Anticonvulsant activity in albino mouse assessed as protection against maximal electroshock-induced seizures at 100 mg/kg, ip after 4 hrs. In kind it is functional, organism-based. Details: dose 100 mg/kg. A general note: The maximal electroshock test induces tonic seizures with an electrical stimulus.
Series [5] deals with Mus musculus. Put plainly: Anticonvulsant activity in albino mouse assessed as protection against subcutaneous metrazole-induced seizures at 100 mg/kg, ip after 0.5 hrs. The arrangement: dose 100 mg/kg. In kind it is functional, organism-based.
In series [6] the test system is Mus musculus. Briefly: Neurotoxicity in albino mouse assessed as minimal motor impairment at 100 mg/kg, ip after 0.25 hrs by rotorod test. Particulars: in vivo. The arrangement: dose 100 mg/kg, route intraperitoneal. Format: toxicity, organism-based. Background: Falling from the rotarod earlier than controls is read as motor impairment.
In series [7] the test system is Mus musculus. Briefly: Anticonvulsant activity in albino mouse assessed as protection against maximal electroshock-induced seizures at 100 mg/kg, ip after 0.5 hrs. Format: functional, organism-based. The arrangement: dose 100 mg/kg.
In series [8] the test system is Mus musculus. Put plainly: Neurotoxicity in albino mouse assessed as minimal motor impairment at 100 mg/kg, ip after 1 hr by rotorod test. The arrangement: dose 100 mg/kg, route intraperitoneal. Format: toxicity, organism-based. Particulars: in vivo.
Series [9] deals with Mus musculus. Briefly: Anticonvulsant activity in albino mouse assessed as protection against maximal electroshock-induced seizures at 100 mg/kg, ip after 1 hr. In kind it is functional, organism-based. Details: dose 100 mg/kg.
Series [10] has as its system Mus musculus. Briefly: Anticonvulsant activity in albino mouse assessed as protection against maximal electroshock-induced seizures at 100 mg/kg, ip after 0.25 hrs. In kind it is functional, organism-based. Details: dose 100 mg/kg.
The subject of series [11] is Mus musculus. Briefly: Anticonvulsant activity in albino mouse assessed as protection against 6 Hz psychomotor seizure at 100 mg/kg, ip after 0.25 hrs by minimal clonic seizure test. Details: dose 100 mg/kg. Format: functional, organism-based.
Series [12] has as its system Mus musculus. Briefly: Anticonvulsant activity in ip dosed albino mouse assessed as time of peak effect for protection against 6 Hz psychomotor seizure by minimal clonic seizure test. Format: functional.
The subject of series [13] is Mus musculus. Put plainly: Anticonvulsant activity in ip dosed albino mouse assessed as protection against 6 Hz psychomotor seizure by minimal clonic seizure test. In kind it is functional.
For series [14], the system named is Mus musculus. Put plainly: Anticonvulsant activity in albino mouse assessed as protection against 6 Hz psychomotor seizure at 100 mg/kg, ip after 0.5 hrs by minimal clonic seizure test. Format: functional, organism-based. The arrangement: dose 100 mg/kg.
The test system of series [15] is Mus musculus. Briefly: Anticonvulsant activity in albino mouse assessed as protection against 6 Hz psychomotor seizure at 100 mg/kg, ip after 1 hr by minimal clonic seizure test. In kind it is functional, organism-based. Details: dose 100 mg/kg.
The species named for series [16] is Mus musculus. Put plainly: Protective index, ratio of TD50 for albino mouse minimal clonic seizure model to ED50 for albino mouse assessed as protection against 6 Hz psychomotor seizure. In kind it is functional.
Series [17] is described as follows: Neurotoxicity in ip dosed albino mouse minimal clonic seizure model assessed as minimal motor impairment by rotorod test. In kind it is toxicity, organism-based. Particulars: in vivo.
For series [18], the system named is Mus musculus. Put plainly: Anticonvulsant activity in albino mouse assessed as protection against 6 Hz psychomotor seizure at 100 mg/kg, ip after 2 hrs by minimal clonic seizure test. Format: functional, organism-based. The arrangement: dose 100 mg/kg.
The test system of series [19] is Mus musculus. Briefly: Anticonvulsant activity in albino mouse assessed as protection against 6 Hz psychomotor seizure at 100 mg/kg, ip after 4 hrs by minimal clonic seizure test. In kind it is functional, organism-based. The arrangement: dose 100 mg/kg.
For series [20], the system named is Mus musculus. Briefly: Neurotoxicity in albino mouse minimal clonic seizure model assessed as minimal motor impairment at 100 mg/kg, ip after 0.5 hrs by rotorod test. Format: toxicity, organism-based. The arrangement: dose 100 mg/kg, route intraperitoneal. Particulars: in vivo.
The test system of series [21] is Mus musculus. Briefly: Neurotoxicity in albino mouse minimal clonic seizure model assessed as minimal motor impairment at 100 mg/kg, ip after 2 hrs by rotorod test. Format: toxicity, organism-based. The arrangement: dose 100 mg/kg, route intraperitoneal. Particulars: in vivo.
Series [22] concerns Mus musculus. Briefly: Neurotoxicity in albino mouse minimal clonic seizure model assessed as minimal motor impairment at 100 mg/kg, ip after 4 hrs by rotorod test. Particulars: in vivo. In kind it is toxicity, organism-based. Details: dose 100 mg/kg, route intraperitoneal.
Series [23] has as its system Mus musculus. Briefly: Neurotoxicity in albino mouse minimal clonic seizure model assessed as minimal motor impairment at 100 mg/kg, ip after 1 hr by rotorod test. In kind it is toxicity, organism-based. Details: dose 100 mg/kg, route intraperitoneal. Particulars: in vivo.
For series [24], the system named is Mus musculus. Briefly: Neurotoxicity in albino mouse minimal clonic seizure model assessed as minimal motor impairment at 100 mg/kg, ip after 0.25 hrs by rotorod test. Format: toxicity, organism-based. Particulars: in vivo. Details: dose 100 mg/kg, route intraperitoneal.
Series [25] deals with Mus musculus. Briefly: Anticonvulsant activity in albino mouse assessed as protection against subcutaneous metrazole-induced seizures at 100 mg/kg, ip after 1 hr. In kind it is functional, organism-based. The arrangement: dose 100 mg/kg.
The subject of series [26] is Mus musculus. Briefly: Anticonvulsant activity in albino mouse assessed as protection against subcutaneous metrazole-induced seizures at 100 mg/kg, ip after 0.25 hrs. Format: functional, organism-based. Details: dose 100 mg/kg.

In the case of `O=C1NC(=O)[C@@H]2CCCN2[C@H]1c1cccs1`, the Activity result with Mus musculus [1] was “Non-toxic”; in the series on Mus musculus [2] it was “Non-toxic”; in the series with Mus musculus [6], “Toxic”; in the series with Mus musculus [8], “Non-toxic”. Besides, the outcome in the series with Rattus norvegicus, with Mus musculus [3], in the series with Mus musculus [4] and in the series with Mus musculus [5] was inactive. For the same molecule, in the series with Mus musculus [7], the outcome was Active.

On to `COc1ccc([C@H]2C(=O)NC(=O)[C@@H]3CCCN23)cc1`, for which the Activity result in the series on Mus musculus [1], with Mus musculus [2], in the series with Mus musculus [6] and in the series with Mus musculus [8] was “Non-toxic” in each case. Moreover, the result in the series with Rattus norvegicus, with Mus musculus [3], in the series on Mus musculus [4], in the series on Mus musculus [5], with Mus musculus [9] and in the series on Mus musculus [7] was inactive. The outcome with Mus musculus [10] was inactive.

`Cc1ccc([C@H]2C(=O)NC(=O)[C@@H]3CCCN23)cc1`: the Activity result in the series with Mus musculus [1], in the series on Mus musculus [2], in the series on Mus musculus [6] and in the series with Mus musculus [8] was “Non-toxic” throughout. Further, the outcome in the series on Rattus norvegicus, with Mus musculus [3], with Mus musculus [4], with Mus musculus [5], with Mus musculus [9] and in the series on Mus musculus [7] was inactive. The result in the series with Mus musculus [18], in the series with Mus musculus [10] and in the series on Mus musculus [19] was inactive. Also, the result in the series on Mus musculus [11], with Mus musculus [14] and in the series with Mus musculus [15] was Active. Besides, the Time in the series on Mus musculus [12] was 0.25 h. For the same molecule, the ED50 in the series on Mus musculus [13] was determined as 41.7 mg/kg. The “Ratio TD50/ED50” value in the series listed under Mus musculus [16] stood at 4. For the same molecule, in series [17], the TD50 was 167 mg/kg.

`O=C1NC(=O)[C@@H]2CCCN2[C@H]1c1ccc2ccccc2c1`: the Activity entry with Mus musculus [1] and with Mus musculus [2] was “Non-toxic” each time. In addition, the result with Rattus norvegicus, in the series with Mus musculus [3], with Mus musculus [4], with Mus musculus [5] and in the series with Mus musculus [7] was inactive.

For the molecule `CCC1(C)CC(=O)NC1=O` (centres undefined) [ETHOSUXIMIDE], the Time in the series on Mus musculus [12] amounted to 0.25 h.

As for `O=C1NC(=O)C(c2ccccc2)(c2ccccc2)N1` [PHENYTOIN], the ED50 with Mus musculus [13] was > 60 mg/kg.

For `O=C1NC(=O)[C@@H]2CCCN2[C@H]1c1cccc2ccccc12`, the Activity entry with Mus musculus [1] and in the series on Mus musculus [2] was “Non-toxic” each time. Besides, the result with Rattus norvegicus, in the series with Mus musculus [3], in the series with Mus musculus [4], with Mus musculus [5] and in the series on Mus musculus [7] was inactive.

Regarding `COc1ccccc1[C@H]1C(=O)NC(=O)[C@@H]2CCCN12`, the Activity result in the series on Mus musculus [20], in the series with Mus musculus [1], in the series on Mus musculus [21], with Mus musculus [2], in the series on Mus musculus [22] and with Mus musculus [23] was “Non-toxic” in each case. The Activity result in the series on Mus musculus [6], in the series on Mus musculus [24] and in the series on Mus musculus [8] was “Non-toxic” each time. The outcome in the series on Rattus norvegicus, in the series with Mus musculus [3], in the series on Mus musculus [4], in the series with Mus musculus [5], in the series with Mus musculus [9] and in the series with Mus musculus [7] was inactive. In addition, the outcome in the series on Mus musculus [18], in the series with Mus musculus [10] and with Mus musculus [19] was inactive. In addition, the outcome in the series on Mus musculus [11], with Mus musculus [14] and in the series with Mus musculus [15] was Active.

For the molecule `O=C1NC(=O)[C@@H]2CCCN2[C@H]1c1cc(Cl)cc(Cl)c1`, the Activity result in the series on Mus musculus [20], in the series with Mus musculus [1], with Mus musculus [21], with Mus musculus [2], in the series on Mus musculus [22] and in the series with Mus musculus [23] was “Non-toxic” in each case. The Activity entry in the series on Mus musculus [6], in the series with Mus musculus [24] and with Mus musculus [8] was “Non-toxic” throughout. The result in the series on Mus musculus [25], with Rattus norvegicus, with Mus musculus [3], with Mus musculus [5], with Mus musculus [15] and with Mus musculus [26] was inactive. The outcome in the series with Mus musculus [18] and with Mus musculus [19] was inactive. In addition, the result in the series with Mus musculus [4], with Mus musculus [11], in the series with Mus musculus [9], with Mus musculus [7], with Mus musculus [14] and in the series on Mus musculus [10] was Active.

With `O=C1NC(=O)[C@@H]2CCCN2[C@H]1c1ccco1`, the Activity entry is “Toxic” in the series with Mus musculus [1] and “Non-toxic” in the series on Mus musculus [2]. Further, the outcome in the series on Rattus norvegicus, with Mus musculus [3], in the series with Mus musculus [4], in the series on Mus musculus [5] and in the series with Mus musculus [7] was inactive.

Consider `COc1cccc([C@H]2C(=O)NC(=O)[C@@H]3CCCN23)c1`, for which the result in the series on Mus musculus [25], with Rattus norvegicus, in the series with Mus musculus [3], in the series on Mus musculus [4], in the series on Mus musculus [5] and in the series on Mus musculus [9] was inactive. Further, the outcome in the series on Mus musculus [26] was inactive. For the same molecule, the Activity entry in the series with Mus musculus [1], with Mus musculus [2], in the series on Mus musculus [6] and with Mus musculus [8] was “Non-toxic” throughout. In addition, the outcome in the series on Mus musculus [7] and in the series on Mus musculus [10] was Active.

As for `CC[C@@H](C(N)=O)N1CCCC1=O`, the Time with Mus musculus [12] stood at 1 h. Also, the TD50 in series [17] was > 500 mg/kg.

Turning to `O=C1NC(=O)[C@@H]2CCCN2[C@H]1c1ccoc1`, the Activity result in the series on Mus musculus [1] and in the series with Mus musculus [2] was “Non-toxic” in each case. Moreover, the result with Rattus norvegicus, in the series on Mus musculus [3], with Mus musculus [4], in the series on Mus musculus [5] and with Mus musculus [7] was inactive.
